Laboratory results taken from patent publication US9193699B2, “Apoptosis inducing compounds” (INSTITUT NATIONAL DE LA SANTE ET DE LA RECHERCHE MEDICALE …, priority 2011, dated 2015).

Assays:
Cancer stem cells (CSCs) = assay: Aldefluor assay of cancer stem cells (ALDH+ cells), FACS; assay type: cell-based
Procedure: Cancer stem cells (CSCs) are thought to contribute to tumor initiation, maintenance, resistance to therapy, and metastasis progression. Treatment with drugs enrich in resistant CSCs. In vitro, breast CSCs express high level of aldehyde dehydrogenase-1 (ALDH1), which can be detected by using a commercial assay (CSCs are “Aldefluor” positive). Briefly, cells were incubated in Aldefluor assay buffer containing ALDH substrate (BAAA (BODIPY®—aminoacetaldehyde), 1 μmol/L per 1×10^6 cells). Negative control was done in the presence of diethylaminobenzaldehyde (DEAB), a specific ALDH inhibitor. Cells were then incubated for 40 min at 37° C. Cells were analyzed with the LSRII flow cytometer (Becton-Dickinson). PI (Propidium Iodide) exclusion was used to gate viable cells.

[1] = test system: Thirty eight validated cells lines; assay: High throughput cell growth analysis on cell line panel; assay type: cell-based; settings: panel of cell lines
Procedure: Thirty eight validated cells lines, including BXPC3 cells, DU145 cells, OPM2 cells, U-2-OS cells, PLCPRF5 cells, A549 cells, SUM149 cells, HepG2 cells, L389 cells, HGC27 cells, TOV-112D cells, Messa cells, Karpas 299 cells, A498 cells, HCT-116 cells, H1299 cells, Hep2 cells, DLD1 cells, HUT78 cells, AGS cells, A4573 cells, ACHN cells, Panc-1 cells, A375 cells, BT-20 cells, L226 cells, MDAMB231 cells, U118 cells, PC-3 cells, SW579 cells, CLS354-4 cells, Calu-6 cells, U87MG cells, MeWO cells, HUVEC, HME-1 cells, MCF10-A cells and fibroblasts, were plated at 3000 cells/100 μL at 37° C. in 5% CO2 in recommended medium containing 10% FCS.
Compounds 12, 4, 11, 3, 13, 6, 8, 14, 1 and 7, described in the above examples, and DMSO as a control, were tested at various concentrations and % inhibition of cell growth at 10 μM was more particularly studied.

[2] = test system: tumors derived from MMTC-ErbB2/neu mice; assay: TUNEL assay of tumor apoptosis in MMTV-ErB2/Neu mice; assay type: in vivo; settings: 100 mg/kg for 30 days
Procedure: DNA fragmentation in apoptotic cells was analyzed by the TUNEL assay (ApopTag detection kit, Millipore) as recommended by the manufacturer.
Briefly, 4 μm sections of paraffin-embedded fixed tissue from tumors derived from MMTC-ErbB2/neu mice treated with vehicle or with Compound 12, 4 or 8 (100 mg/kg) for 30 days, were deparaffined with successive histolemon and ethanol washes, then treated with 20 μg/mL proteinase K for 15 min at room temperature. Endogenous peroxidise was quenched with 3% hydrogen peroxide. […] Coloration was performed using the diaminobenzidine mixed substrate (Dako). Counterstaining was done with a solution of 1% methyl green for 5 min at room temperature. After distilled water and N-butanol washes, specimens were mounted in Pertex medium (CellPath). Observations were made using the Leica DMD108 digital microimaging device (Leica Microsystems GmbH).

[3] = test system: caspase-3 and caspase-7 in L226 cells; assay: Caspase 3/7 activation (Caspase-Glo 3/7) in L226 tumor cells; assay type: cell-based; settings: Homo sapiens, R=RLU at 20 μM/RLU at 0 μM, 24 h, read-out: Caspase 3/7 activation R (RLU fold increase from untreated cells)
Procedure: Human breast tumor L226 cells were plated in a 96 well plate at 10000 cells/100 μL at 37° C. in 5% CO2. Serial dilutions of drugs (compounds 1, 3 or 4) ranging from 20 μM to 300 nM were added at day 0. Active caspase-3 and caspase-7 were measured in triplicate after 24 h treatment by incubating 50 μL of the Caspase-Glo 3/7 reagent for 60 min at 25° C. This reagent containing the proluminescent tetrapeptide sequence DEVD in a cell lysis buffer (Promega) (FIG. 7).
Caspase 3/7 activation in SUM149 and L226 tumor cells was measured.
The calculated values R correspond to Relative Luminescence Units (RLU) fold increase from untreated cells (R=RLU at 20 μM/RLU at 0 μM).

[4] = test system: Human breast tumor SUM149 cells; assay: Annexin V/7-AAD apoptosis with or without Z-VAD-FMK; assay type: cell-based; settings: 2.5 to 20 μM, 48 h, with Z-VAD-FMK pan-caspases inhibitor
Procedure: Human breast tumor SUM149 cells were plated in dishes at a concentration of 10^6 cells/[…] Cells were treated with compound 3 or compound 4 (2.5 to 20 μM) for 48 h, with or without Z-VAD-FMK, a pan-caspases inhibitor. Cells were double stained with annexinV-FITC and 7-AAD to measure cell apoptosis.

Row | Structure (SMILES) | pool of CSC (ALDH+ cells) after treatment (Cancer stem cells (CSCs); 0.6 μM, DMSO control 2.6%) [%] | aldefluor ratio (percent ALDH+ cells treated vs DMSO) (Cancer stem cells (CSCs); FIG. 12B) | cell lines studied that were sensitive [1] [%] | IC50 ([1]; recommended medium containing 10% FCS, read-out: IC50 of cell growth inhibition on cell line panel) [nM] | percentage of cells having TdT positive nuclei in tumors [2] [%] | fold induction at 20 µM [3] | effect of Z-VAD treatment on compound induced apoptosis (Annexin V positive cells) [4]
1 | Cc1c(C)c(C)c(S(=O)(=O)N2CCSC(C)(C)[C@@H]2C(=O)NO)c(C)c1C [Compound 12, (3S)—N-hydroxy-4-[(2,3,4,5,6-pentamethylphenyl)sulfonyl]-2,2-dimethyl-3-thiomorpholine carboxamide] | 0.4 | reduces the aldefluor ratio | 86 | < 1000 | 70 | 6.2 | 
2 | Cc1cc(C)c(C)c(S(=O)(=O)N2CCSC(C)(C)[C@@H]2C(=O)NO)c1C [Compound 4, (3S)—N-hydroxy-4-[(2,3,5,6-tetramethylphenyl)sulfonyl]-2,2-dimethyl-3-thiomorpholine carboxamide] |  |  |  |  | 50 | 7.4 | fully impaired
